Test results: US4710500A, “1-(4'-fluorophenyl)-3,5-substituted indoles useful in the treatment of psychic disorders and pharmaceutical compositions thereof” (H. Lundbeck A/S, priority 1985, dated 1987)
pIC50: −log10 of the molar value. Where a name gives a salt, the structure may show the parent alone. Read-outs that look alike come from different tables or passages of the source.

How the values were obtained:
[1] = Catalepsy; format: in vivo, rat
[2] = system: methylphenidate-induced gnawing; experiment: Methylphenidate antagonism; format: in vivo, mice
[3] = molecular target: T1, 5-HT2 receptor (Rattus norvegicus, UniProt P14842); experiment: Quipazine inhibition (head twitches); format: in vivo; conditions: for Qvipaz. inh. ED50(sc): sc 2 hours before quipazine 15 umol/kg sc
T1 construct: from tissue; host or cells: living rats (in vivo), CNS
Method: Quipazine and a number of other compounds, which increase 5-HT2 receptor activity in the CNS, induce a characteristic rapid shake (twitch) of the head. This response is inhibited by 5-HT2 receptor antagonists (Vetulani et al. 1980, Arnt et al. 1984).
The test compound or saline is injected subcutaneously 2 hours before subcutaneous injection of quipazine hemimalecate (15umol/kg). At least 3 dose groups, each consisting of at least 4 rats, are used. The rats are individually placed in observation cages (12×25 cm) and the number of head twitches are counted 30-40 min after quipazine administration. Inhibition of head twitches is expressed in per cent of the number of head twitches in the control group. ED 50 values are calculated by log-probit analysis.
Vetulani, J., B.B. Beduarczyk, K. Reichenberg and A. Rokost: Neuropharmacology 19, 155-158, […].
Arnt, J., J. Hyttel and J.-J. Larsen: Acta pharmacol. et toxicol. 55, 363-372, 1984.

[4] = molecular target: T2, dopamine (DA) D-2 receptors (Rattus norvegicus, UniProt P61169); experiment: 3H-spiroperidol binding, dopamine D-2 receptors in rat striatal membranes
T2 construct: DA D-2 receptors in rat striatal membranes; from tissue; host or cells: rat striatal membranes
Method: 4. ^3 H-spiroperidol bindings
The affinity of compounds to dopamine (DA) D-2 receptors and serotomin2 (5-HT2) receptors was determined by in vitro receptor binding technique.
Arnt, J., J. Hyttel and J.-J. Larsen: Acta pharmacol. et toxicol.

[5] = read-out: Catalep. ED50(po) 1-6 h, po, rat, 1-6 h
[6] = Mus musculus, ip; i.p. test substance; mice; methylphenidate s.c. 60 mg/kg; read-out: MePh Antg. ED50(ip)
[7] = Mus musculus, ip, read-out: MePh Antg. ED50(ip)
[8] = read-out: Catalep. ED50(po) 24 h, po, rat, 24 h
[9] = Rattus norvegicus, sc, 24 h, read-out: Catalep. ED50 (sc) 24 h
[10] = Rattus norvegicus, sc, read-out: Catalep. ED50 (sc) 1-6 h
[11] = Mus musculus, sc, read-out: MePh Antg. ED50 (sc)
[12] = Rattus norvegicus, po, 24 h, read-out: Catalep. ED50(po) 24 h
[13] = Rattus norvegicus, po, read-out: Catalep. ED50(po) 1-6 h
[14] = Mus musculus, sc; read-out: MePh Antg. ED50 (sc)

T2 sequence (P61169 whole entry): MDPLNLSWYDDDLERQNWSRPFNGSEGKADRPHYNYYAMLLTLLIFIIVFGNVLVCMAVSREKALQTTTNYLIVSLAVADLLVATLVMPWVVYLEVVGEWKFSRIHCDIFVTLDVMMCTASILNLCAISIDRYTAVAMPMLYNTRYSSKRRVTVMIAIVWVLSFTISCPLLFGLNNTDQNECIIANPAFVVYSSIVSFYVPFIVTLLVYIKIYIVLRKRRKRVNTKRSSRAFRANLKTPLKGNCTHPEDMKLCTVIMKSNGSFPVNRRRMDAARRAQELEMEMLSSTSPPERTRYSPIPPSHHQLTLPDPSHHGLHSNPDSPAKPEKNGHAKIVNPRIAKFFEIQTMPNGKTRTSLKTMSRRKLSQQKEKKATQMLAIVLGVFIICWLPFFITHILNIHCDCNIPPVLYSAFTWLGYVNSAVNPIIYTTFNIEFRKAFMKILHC
T1 sequence (P14842 whole entry): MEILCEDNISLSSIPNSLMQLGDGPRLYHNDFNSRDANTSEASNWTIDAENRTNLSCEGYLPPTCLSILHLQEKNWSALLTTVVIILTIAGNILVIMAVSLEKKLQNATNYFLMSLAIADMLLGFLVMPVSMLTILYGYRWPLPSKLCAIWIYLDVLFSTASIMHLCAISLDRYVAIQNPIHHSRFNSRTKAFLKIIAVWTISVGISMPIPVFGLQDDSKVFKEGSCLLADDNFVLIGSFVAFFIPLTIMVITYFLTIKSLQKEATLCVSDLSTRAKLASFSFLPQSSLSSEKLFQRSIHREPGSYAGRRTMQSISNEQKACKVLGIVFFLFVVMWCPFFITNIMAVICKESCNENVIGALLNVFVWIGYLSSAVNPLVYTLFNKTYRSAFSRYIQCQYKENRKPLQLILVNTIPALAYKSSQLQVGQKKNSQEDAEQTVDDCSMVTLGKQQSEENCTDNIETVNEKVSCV

OCCN1CCN(CC/C=C2/c3ccccc3Sc3ccc(C(F)(F)F)cc32)CC1 [Cis(Z)Flupentixol, reference compound]
Catalep. ED50(po) 1-6 h ([1]; po, rat, 1-6 h): 2.4 µmol/kg
Catalep. ED50(po) 24 h ([1]; po, rat, 24 h): 19 µmol/kg
MePh Antg. ED50(ip) ([2]; i.p. test substance; mice; methylphenidate s.c. 60 mg/kg): 0.14 µmol/kg
Qvipaz. inh. ED50(sc) [3]: 0.042 µmol/kg

O=C(CCCN1CCC(O)(c2ccc(Cl)cc2)CC1)c1ccc(F)cc1 [Haloperidol, reference compound]
ED50 [1, 5]: 1 µmol/kg
ED50 [2, 6]: 0.11 µmol/kg

Cc1ccc2c(c1)c(C1CCN(C)CC1)cn2-c1ccc(F)cc1 [Lu 21-037, 1-(4'-Fluorophenyl)-5-methyl-3-(1-methyl-4-piperidyl)-1H-indole, hydrobromide]
ED50 [2, 6]: 2.1 µmol/kg

O=C1NCCN1CCN1CC=C(c2cn(-c3ccc(F)cc3)c3ccc(F)cc23)CC1 [Lu 21-046, oxalate]
ED50 [2, 7]: 48.1 µmol/kg

CN1CCC(c2cn(-c3ccc(F)cc3)c3ccc(C(F)(F)F)cc23)CC1 [Lu 21-131, 1-(4'-Fluorophenyl)-3-(1-methyl-4-piperidyl)-5-trifluoromethyl-1H-indole, oxalate]
ED50 [1, 5]: 0.59 µmol/kg
ED50 [1, 8]: 2.2 µmol/kg
ED50 [2, 6]: 0.6 µmol/kg

CC(C)CN1CC=C(c2cn(-c3ccc(F)cc3)c3ccc(Cl)cc23)CC1 [Lu 22-134, 5-Chloro-1-(4'-fluorophenyl)-3-(1-isobutyl-1,2,3,6-tetrahydropyridin-4-yl)-1H-indole, hydrobromide]
ED50 [1, 9]: > 2.7 µmol/kg
ED50 [1, 10]: 2.7 µmol/kg
ED50 [2, 7]: 1.7 µmol/kg
pIC50 [4]: 8.28
Qvipaz. inh. ED50(sc) [3]: 2.5 µmol/kg

Fc1ccc(-n2cc(N3CCN(CCN4CCCC4=S)CC3)c3cc(C(F)(F)F)ccc32)cc1 [Lu 23-018, 1-(4'-Fluorophenyl)-3-(4-(2-(pyrrolidin-2-thion-1-yl)-ethyl)-1-piperazino)-5-trifluoromethyl-1H-indole]
ED50 [1, 5]: 1.2 µmol/kg
ED50 [1, 8]: 2.9 µmol/kg
ED50 [2, 6]: 53 µmol/kg

O=C1NCCN1CCN1CC=C(c2cn(-c3ccc(F)cc3)c3ccccc23)CC1 [Lu 23-075, 1-(4'-Fluorophenyl)-3-(1-(2-imidazolidinon-1-ylethyl)-1,2,3,6-tetrahydropyridin-4-yl)-1H-indole, hydrochloride]
ED50 [2, 11]: 19 µmol/kg
ED50 ([3]; sc, 2 h, read-out: Qvipaz. inh. ED50(sc)): 0.18 µmol/kg

CN1CC=C(c2cn(-c3ccc(F)cc3)c3ccccc23)CC1.Cl [Lu 23-083, 1-(4'-Fluorophenyl)-3-(1-methyl-1,2,3,6-tetrahydropyridin-4-yl)-1H-indole, hydrochloride]
ED50 [1, 12]: > 14 µmol/kg
ED50 [1, 13]: 9.4 µmol/kg
ED50 [2, 11]: 1.3 µmol/kg
pIC50 [4]: 8.74
Qvipaz. inh. ED50(sc) [3]: 0.15 µmol/kg

O=[N+]([O-])c1ccc2c(c1)c(C1=CCNCC1)cn2-c1ccc(F)cc1 [Lu 23-133, 1-(4'-Fluorophenyl)-5-nitro-3-(1,2,3,6-tetrahydropyridin-4-yl)-1H-indole, maleate]
ED50 [1, 12]: > 11 µmol/kg
ED50 [1, 13]: 11 µmol/kg
ED50 [2, 11]: 18 µmol/kg
pIC50 [4]: 8.23

OCCN1CC=C(c2cn(-c3ccc(F)cc3)c3ccc(Cl)cc23)CC1 [Lu 23-146, 5-Chloro-1-(4'-fluorophenyl)-3-(1-(2-hydroxyethyl)-1,2,3,6-tetrahydropyridin-4-yl)-1H-indole, hydrochloride]
ED50 [1, 10]: 1 µmol/kg
ED50 [2, 11]: 0.73 µmol/kg

Fc1ccc(-n2cc(C3=CCNCC3)c3cc(Cl)ccc32)cc1 [Lu 23-147, 5-Chloro-1-(4'-fluorophenyl)-3-(1,2,3,6-tetrahydropridin-4-yl)-1H-indole]
ED50 [2, 11]: > 99 µmol/kg

O=C1NCCN1CCN1CC=C(c2cn(-c3ccc(F)cc3)c3ccc(Cl)cc23)CC1 [Lu 23-148, 5-Chloro-1-(4'-fluorophenyl)-3-(1-(2-imidazolidinon-1-ylethyl)-1,2,3,6-tetrahydropyridin-4-yl)-1H-indole]
ED50 [2, 11]: > 91 µmol/kg

CN1CC=C(c2cn(-c3ccc(F)cc3)c3ccc(N)cc23)CC1 [Lu 23-149, 5-Amino-1-(4'-fluorophenyl)-3-(1-methyl-1,2,3,6-tetrahydropyridin-4-yl)-1H-indole, fumarate]
ED50 [2, 11]: 0.45 µmol/kg

Fc1ccc(-n2cc(C3=CCNCC3)c3cc(C(F)(F)F)ccc32)cc1 [Lu 23-155, 1-(4'-Fluorophenyl)-3-(1,2,3,6-tetrahydropyridin-4-yl)-5-trifluoromethyl-1H-indole]
ED50 [2, 11]: 3.8 µmol/kg

O=C1NCCN1CCN1CC=C(c2cn(-c3ccc(F)cc3)c3ccc(C(F)(F)F)cc23)CC1 [Lu 23-157, 1-(4'-Fluorophenyl)-3-(1-(2-imidazolidinon-1-ylethyl)-1,2,3,6-tetrahydropridin-4-yl)-5-trifluoromethyl-1H-indole]
ED50 [1, 9]: 2.6 µmol/kg
ED50 [1, 10]: 0.49 µmol/kg
ED50 [2, 11]: 0.37 µmol/kg
Qvipaz. inh. ED50(sc) [3]: 0.12 µmol/kg

O=C1CCCN1CCN1CCC(c2cn(-c3ccc(F)cc3)c3ccc(C(F)(F)F)cc23)CC1 [Lu 23-158, 1-(4'-Fluorophenyl)-3-(1-(1-pyrrolidin-2-onylethyl)-4-piperidyl)-5-trifluoromethyl-1H-indole, fumarate]
ED50 [2, 14]: 2.9 µmol/kg

Fc1ccc(-n2cc(C3=CCNCC3)c3cc(F)ccc32)cc1 [Lu 23-159, 5-fluoro-1-(4'-fluorophenyl)-3-(1,2,3,6-tetrahydropyridin-4-yl)-1H-indole]
ED50 [2, 11]: 47 µmol/kg

CC(=O)OCCN1CCN(c2cn(-c3ccc(F)cc3)c3ccc(C(F)(F)F)cc23)CC1 [Lu 23-161]
ED50 [1, 9]: 0.18 µmol/kg
ED50 [1, 10]: 0.09 µmol/kg
ED50 [2, 14]: 0.05 µmol/kg

CCCCCCCCCC(=O)OCCN1CCN(c2cn(-c3ccc(F)cc3)c3ccc(C(F)(F)F)cc23)CC1 [Lu 23-162]
ED50 [2, 14]: 1.7 µmol/kg

CCCCCCCC/C=C\CCCCCCCC(=O)OCCN1CCN(c2cn(-c3ccc(F)cc3)c3ccc(C(F)(F)F)cc23)CC1 [Lu 23-163, 1-(4'-Fluorophenyl)-3-(4-(l-oleyloxyethyl)-1-piperazino)-5-trifluoromethyl-1H-indole, dihydrochloride]
ED50 [2, 14]: 1.1 µmol/kg

CC(C)N1CC=C(c2cn(-c3ccc(F)cc3)c3ccc(F)cc23)CC1 [Lu 23-167, 5-fluoro-1-(4'-fluorophenyl)-3-(1-(2-propyl)-1,2,3,6-tetrahydropyridin-4-yl)-1H-indole, fumarate]
ED50 [1, 9]: > 11 µmol/kg
ED50 [1, 10]: 2.7 µmol/kg
ED50 [2, 11]: 2.7 µmol/kg

OCCCN1CC=C(c2cn(-c3ccc(F)cc3)c3ccc(C(F)(F)F)cc23)CC1 [Lu 23-171, 1-(4'-Fluorophenyl)-3-(1-(3-hydroxypropyl)-1,2,3,6-tetrahydropyridin-4-yl) -5trifluoromethyl-1H-indole]
ED50 [2, 11]: 0.11 µmol/kg

Fc1ccc(-n2cc(C3=CCN(CCn4cccc4)CC3)c3cc(C(F)(F)F)ccc32)cc1 [Lu 23-172, 1-(4'-Fluorophenyl)-3-(1-pyrrolo-2-ethyl)-1,2,3,6-tetrahydropyridin-4-yl)-5-trifluoromethyl-1H-indole. maleate]
ED50 [2, 11]: > 70 µmol/kg
pIC50 ([4]; read-out: 3H-Spiroperidol bindings DA-2 receptors IC50, rat striatal membranes, in vitro): 7.51
Qvipaz. inh. ED50(sc) [3]: > 0.55 µmol/kg

Fc1ccc(-n2cc(C3=CCN(CCn4ccnc4)CC3)c3cc(C(F)(F)F)ccc32)cc1 [Lu 24-002, 1-(4'-Fluorophenyl)-3-(1-(1-imidazole-2-ethyl)-1,2,3,6-tetrahydropyridin-4-yl)-5-trifluoromethyl-1H-indole, dimaleate]
ED50 [2, 11]: 0.45 µmol/kg
Qvipaz. inh. ED50(sc) [3]: > 0.45 µmol/kg

CN1CC=C(c2cn(-c3cccc(F)c3)c3ccc([N+](=O)[O-])cc23)CC1 [Lu 24-004, 1-(3'-Fluorophenyl)-5-nitro-3-(1-methyl-1,2,3,6-tetrahydropyridin-4-yl)-1H-indole, maleate]
ED50 [2, 11]: 1.1 µmol/kg

OCCN1CC=C(c2cn(-c3ccc(C(F)(F)F)cc3)c3ccccc23)CC1 [Lu 24-012, 3-(1-(2-Hydroxyethyl)-1,2,3,6-tetrahydropyridin-4-yl)-1-(4'-trifluoromethylphenyl-1H-indole, fumarate]
ED50 [2, 11]: > 20 µmol/kg

CN1CC=C(c2cn(-c3nccs3)c3ccc(F)cc23)CC1 [Lu 24-013, 5-Fluro-3-(1-methyl-1,2,3,6-tetrahydropyridin-4-yl)-1-(2-thiazolo)-1H-indole, fumarate]
ED50 [2, 11]: > 20 µmol/kg

CN1CC=C(c2cn(-c3cccs3)c3ccc([N+](=O)[O-])cc23)CC1 [Lu 24-014, 3-(1-Methyl-1,2,3,6-tetrahydropyridin-4-yl)-5-nitro-1-(2-thienyl)-1H-indole, maleate]
ED50 [2, 11]: > 22 µmol/kg

CN1CC=C(c2cn(-c3ccccn3)c3ccc([N+](=O)[O-])cc23)CC1 [Lu 24-015, 3-(1-Methyl-1,2,3,6-tetrahydropyridin-4-yl)-5-nitro-1-pyridin-2-yl-1H-indole]
ED50 [2, 11]: 3.8 µmol/kg

CN1CC=C(c2cn(-c3cccnc3)c3ccc([N+](=O)[O-])cc23)CC1 [Lu 24-016, 3-(1-Methyl-1,2,3,6-tetrahydropyridin-4-yl)-5-nitro-1-pyridin-3-yl-1H-indole]
ED50 [2, 11]: > 30 µmol/kg
